Source: patent US4752614A, “Pharmaceutical compositions of tellerium and selenium compounds for the induction of in vivo and in vitro production of cytokines” (Bar-Ilan University, priority 1987, dated 1988)
Where “and” joins values, the source holds several entries; their conditions need not be identical. Equal values may be shown once.

Columns and labels:
[1] = system: IL-2; assay: IL-2 secretion by mouse spleen cells in vitro, CTLD proliferation (Example 17); format: cell-based, male Balb/c mice; conditions: for activation at 1 µg/mL: Mus musculus, read-out: Spleen Cells, percent in parentheses (increase over control)
Protocol: The compounds listed below were tested in vitro at various concentrations that ranged from 10 μg/ml cells to 1×10^-6 μg/ml of cell mixtures. Cells were obtained from spleens of male Balb/c mice 6-8 weeks of age. Spleens were pushed through a stainless steel 60 mesh strainer to separate cells.

[2] = system: human mononuclear cells; assay: Proliferation of human mononuclear cells (Example 19); format: cell-based
Protocol: Human mononuclear cells were obtained by layering heparinized blood over a Ficoll/Hypaque gradient. The mononuclear cells were resuspended in enriched RPMI, rinsed three times and brought to a concentrations of 5×10^5 cells/ml encriched RPMI. […] Aliquots of 0.2 ml of each sample were placed in wells of microplates (triplicates). Microplates were incubated for 72 hours at 37° C. after which they were labelled with H^3 methyl-thymidine 1 μCi/well for an additional 24 hours. Cells were then harvested with a cell harvester.

[3] = system: IL-2; assay: Oral administration in drinking water, IL-2 content of spleen cell supernatants (Example 13); format: in vivo, male Balb-C mice; conditions: 4 days
Protocol: The water solution was prepared by dissolving the compounds in PBS at a concentration of 50 μg/ml PBS and diluting the resulting solution to the desired concentration. The compounds were administered over a 4 day period. The exact amount of liquid intake was recorded daily. […] The cells were incubated at a concentration of 10^7 cells/ml in enriched RPMI containing 2 μg/ml of con-A for 24 hours at 37° C. The supernatants were collected and tested for IL-2 content.

[4] = system: IL-2 receptors; assay: Induction of IL-2 receptors of human mononuclear cells, proliferation with recombinant IL-2 (Example 18); format: cell-based
Protocol: Human MNC were brought to a concentration of 10^6 cells/ml. RPMI+10% FCS. Aliquots of 0.2 ml. were placed in duplicate wells of microdishes and plates were incubated at 37° C. for 24 hrs. […] Plates were further incubated for 48 hrs. and labelled with 3H thymidine 24 hrs. before harvesting.
The proliferation was measured by ^3 HT uptake as described by Gillis et al, J. Immunol. […] The results are expressed in counts per minute.

[5] = system: human mononuclear cells; assay: Proliferation of human mononuclear cells, 3H-methylthymidine (Examples 4 and 9); format: cell-based; conditions: 1 to 10 ng/ml cells, 72 hours (Example 9)
Protocol: Cells were further incubated overnight and harvested with a cell harvester.

[6] = system: T-cell lymphocytes; assay: Lymphokine induction, proliferation and receptor activation in T-cell lymphocytes (statement)
Description: Thus the invention also contemplates the use alone of TeO2 and tellurium compounds that are active as lymphokine inducers.

[7] = system: receptor sites for IL-2; assay: Detection of IL-2 receptors with fluoresceinated antibody (Example 21); format: cell-based, human; conditions: 1 μg/ml, 24 hours
Protocol: This example provides an assay to detect the presence of receptor sites for IL-2. […] The cells were washed twice with PDS and then incubated with a specific fluoresceinated antibody against IL-2 receptors as described in Uchiyama et al, J. Immunol.

[8] = 24 hours, 1 μg/ml of cell mixture
[9] = second part of table, 1 × 10^-1 μg/ml
[10] = second part of table, 1 × 10^-2 μg/ml
[11] = second part of table, 1 × 10^-3 μg/ml
[12] = second part of table, 1 × 10^-4 μg/ml
[13] = second part of table, 5 × 10^-1 μg/ml
[14] = second part of table, 5 × 10^-2 μg/ml

Compound: Cl[Te]1(Cl)OCCO1 [Example 2]
- Spleen Cells (IL-2 activity) [1, 8]: 18,000 cpm
- activation at 1 µg/mL [1, 8]: 605%
- proliferation of human mononuclear cells ([2]; Ex. 2 table, 1 × 10^-4 μg/ml): 4321 and 2332
- proliferation of human mononuclear cells ([2]; Ex. 2 table, 5 × 10^-1 μg/ml): 18415 and 23957
- proliferation of human mononuclear cells ([2]; Ex. 2 table, 5 × 10^-2 μg/ml): 5953 and 5532
- IL-2 content ([3]; 1 μg/ml H2O): 42500 cpm
- Percent increase as compared to control ([3]; 1 μg/ml H2O): +30%
- IL-2 content ([3]; 10 μg/ml H2O): 36815 cpm
- IL-2 content ([3]; 25 μg/ml H2O): 44500 cpm
- Percent increase as compared to control ([3]; 25 μg/ml H2O): +35%
- proliferation (3HT uptake) ([4]; Test B, 1 μg/ml): 9315 counts per minute
- proliferation (3HT uptake) ([4]; Test B, 1 × 10^-2 μg/ml): 6418 counts per minute
- proliferation (3HT uptake) ([4]; Test B, 1 × 10^-3 μg/ml): 5167 counts per minute
- proliferation (3HT uptake) ([4]; Test B, 1 × 10^-4 μg/ml): 5372 counts per minute
- proliferation (3HT uptake) ([4]; Test B, 1 × 10^-5 μg/ml): 6397 counts per minute
- proliferation (3HT uptake) ([4]; Test B, 5 × 10^-1 μg/ml): 8688 counts per minute
- proliferation (3HT uptake) ([4]; Test B, 5 × 10^-2 μg/ml): 5538 counts per minute
- proliferation (3HT uptake) ([4]; Test B, 7 × 10^-1 μg/ml): 5250 counts per minute
- increase of proliferation of human mononuclear cells [5]: 10 fold

Compound: CC1O[TeH](Cl)(Cl)(Cl)OC1C (centres unmarked) [Example 16(b)]
- Spleen Cells (IL-2 activity) [1, 8]: 10,650 cpm
- activation at 1 µg/mL [1, 8]: 318%
- proliferation (3HT uptake) ([4]; Test A, 1 μg/ml): 1018 counts per minute
- proliferation (3HT uptake) ([4]; Test A, 1 × 10^-2 μg/ml): 5883 counts per minute
- proliferation (3HT uptake) ([4]; Test A, 1 × 10^-3 μg/ml): 1093 counts per minute
- proliferation (3HT uptake) ([4]; Test A, 1 × 10^-4 μg/ml): 1138 counts per minute
- proliferation (3HT uptake) ([4]; Test A, 1 × 10^-5 μg/ml): 2146 counts per minute
- proliferation (3HT uptake) ([4]; Test A, 5 × 10^-1 μg/ml): 1195 counts per minute
- proliferation (3HT uptake) ([4]; Test A, 5 × 10^-2 μg/ml): 1602 counts per minute
- proliferation (3HT uptake) ([4]; Test A, 7 × 10^-1 μg/ml): 2102 counts per minute

Compound: CC(=O)O[Te](OC(C)=O)(c1ccccc1)c1ccccc1 [Ph2 Te (OCOCH3)2, reference compound]
- Spleen Cells (IL-2 activity) [1, 8]: 3,500 cpm
- activity at level tested (footnote *) [1]: no significant activity

Compound: Cl[Te](Cl)(Cl)c1ccccc1 [Ph Te Cl3, reference compound]
- Spleen Cells (IL-2 activity) [1, 8]: 18,000 cpm
- activation at 1 µg/mL [1, 8]: 605%

Compound: O=[Te]=O [TeO2, Tellurium dioxide, reference compound]
- Spleen Cells (IL-2 activity) [1, 8]: 17,055 cpm
- Spleen Cells, percent in parentheses (increase over control) [1, 8]: +508%
- effect on proliferation ([2]; any concentration that was tested): No significant effect
- proliferation of human mononuclear cells ([2]; second part of table, 1 μg/ml): 2842
- proliferation of human mononuclear cells ([2]; second part of table, 5 μg/ml): 3028
- proliferation of human mononuclear cells [2, 9]: 4825
- proliferation of human mononuclear cells [2, 10]: 4730
- proliferation of human mononuclear cells [2, 11]: 6168
- proliferation of human mononuclear cells [2, 12]: 5331
- proliferation of human mononuclear cells [2, 13]: 4773
- proliferation of human mononuclear cells [2, 14]: 5802
- activation of the receptor site in responder T-cell lymphocytes [6]: will not cause proliferation of IL-2 producer cells or activate the receptor site
- proliferation of IL-2 producer cells [6]: will not cause proliferation of IL-2 producer cells
- lymphokine production in producer T-cell lymphocytes ([6]; in vitro and in vivo): will induce lymphokine production
- proliferation (3HT uptake) ([4]; Test A, 1 μg/ml): 1563 counts per minute
- proliferation (3HT uptake) ([4]; Test A, 1 × 10^-2 μg/ml): 3108 counts per minute
- proliferation (3HT uptake) ([4]; Test A, 1 × 10^-3 μg/ml): 2867 counts per minute
- proliferation (3HT uptake) ([4]; Test A, 1 × 10^-4 μg/ml): 5540 counts per minute
- proliferation (3HT uptake) ([4]; Test A, 1 × 10^-5 μg/ml): 3442 counts per minute
- proliferation (3HT uptake) ([4]; Test A, 5 × 10^-1 μg/ml): 4667 counts per minute
- proliferation (3HT uptake) ([4]; Test A, 5 × 10^-2 μg/ml): 2515 counts per minute
- proliferation (3HT uptake) ([4]; Test A, 7 × 10^-1 μg/ml): 2475 counts per minute
- proliferation (3HT uptake) ([4]; Test B, 1 μg/ml): 3275 counts per minute
- proliferation (3HT uptake) ([4]; Test B, 1 × 10^-2 μg/ml): 3077 counts per minute
- proliferation (3HT uptake) ([4]; Test B, 1 × 10^-3 μg/ml): 3800 counts per minute
- proliferation (3HT uptake) ([4]; Test B, 1 × 10^-4 μg/ml): 2925 counts per minute
- proliferation (3HT uptake) ([4]; Test B, 1 × 10^-5 μg/ml): 3645 counts per minute
- proliferation (3HT uptake) ([4]; Test B, 5 × 10^-1 μg/ml): 5405 counts per minute
- proliferation (3HT uptake) ([4]; Test B, 5 × 10^-2 μg/ml): 4280 counts per minute
- proliferation (3HT uptake) ([4]; Test B, 7 × 10^-1 μg/ml): 4302 counts per minute
- cells positive for IL-2 receptors [7]: 5%

Compound: Cl[TeH]1(Cl)(Cl)OCCCO1 [Example 16(c)]
- Spleen Cells (IL-2 activity) [1, 8]: 15,720 cpm
- activation at 1 µg/mL [1, 8]: 516%

Compound: COc1ccc([Te](Cl)(Cl)c2ccc(OC)cc2)cc1 [(pCH3 OPh)2 TeCl2, reference compound]
- Spleen Cells (IL-2 activity) [1, 8]: 2,148 cpm

Compound: O=C(O[Te](OC(=O)c1ccccc1)(c1ccccc1)c1ccccc1)c1ccccc1 [Ph2 Te (OCOPh)2, reference compound]
- Spleen Cells (IL-2 activity) [1, 8]: 4,300 cpm
- activity at level tested (footnote *) [1]: no significant activity

Compound: CC1CO[TeH](Cl)(Cl)(Cl)O1 (centres unmarked) [Example 16(a)]
- Spleen Cells (IL-2 activity) [1, 8]: 13,540 cpm
- activation at 1 µg/mL [1, 8]: 435%
- proliferation of human mononuclear cells ([2]; second part of table, 1 μg/ml): 4557
- proliferation of human mononuclear cells ([2]; second part of table, 5 μg/ml): 4118
- proliferation of human mononuclear cells [2, 9]: 12435
- proliferation of human mononuclear cells [2, 10]: 6000
- proliferation of human mononuclear cells [2, 11]: 6300
- proliferation of human mononuclear cells [2, 12]: 4587
- proliferation of human mononuclear cells [2, 13]: 18415
- proliferation of human mononuclear cells [2, 14]: 5953
- proliferation (3HT uptake) ([4]; Test A, 1 μg/ml): 21910 counts per minute
- proliferation (3HT uptake) ([4]; Test A, 1 × 10^-2 μg/ml): 9543 counts per minute
- proliferation (3HT uptake) ([4]; Test A, 1 × 10^-3 μg/ml): 6685 counts per minute
- proliferation (3HT uptake) ([4]; Test A, 1 × 10^-4 μg/ml): 6447 counts per minute
- proliferation (3HT uptake) ([4]; Test A, 1 × 10^-5 μg/ml): 8177 counts per minute
- proliferation (3HT uptake) ([4]; Test A, 5 × 10^-1 μg/ml): 145208 counts per minute
- proliferation (3HT uptake) ([4]; Test A, 5 × 10^-2 μg/ml): 8752 counts per minute
- proliferation (3HT uptake) ([4]; Test A, 7 × 10^-1 μg/ml): 130845 counts per minute

Compound: C1CO[Te]2(O1)OCCO2 [Example 14]
- Spleen Cells (IL-2 activity) [1, 8]: 10,300 cpm
- activation at 1 µg/mL [1, 8]: 304%
- proliferation (3HT uptake) ([4]; Test B, 1 μg/ml): 2620 counts per minute
- proliferation (3HT uptake) ([4]; Test B, 1 × 10^-2 μg/ml): 3928 counts per minute
- proliferation (3HT uptake) ([4]; Test B, 1 × 10^-3 μg/ml): 3007 counts per minute
- proliferation (3HT uptake) ([4]; Test B, 1 × 10^-4 μg/ml): 2327 counts per minute
- proliferation (3HT uptake) ([4]; Test B, 1 × 10^-5 μg/ml): 2242 counts per minute
- proliferation (3HT uptake) ([4]; Test B, 5 × 10^-1 μg/ml): 2402 counts per minute
- proliferation (3HT uptake) ([4]; Test B, 5 × 10^-2 μg/ml): 3290 counts per minute
- proliferation (3HT uptake) ([4]; Test B, 7 × 10^-1 μg/ml): 2000 counts per minute

Compound: Cl[TeH]1(Cl)(Cl)OCCCCO1 [Example 16(d)]
- Spleen Cells (IL-2 activity) [1, 8]: 18,075 cpm
- activation at 1 µg/mL [1, 8]: 608%

Compound: Cl[Te](Cl)(c1ccccc1)c1ccccc1 [Ph2 Te Cl2, reference compound]
- Spleen Cells (IL-2 activity) [1, 8]: 2,300 cpm
- activity at level tested (footnote *) [1]: no significant activity
